According to PubChem BioAssay AID192 (DTP/NCI, 2004):
Where “and” joins values, the source holds several entries; their conditions need not be identical. Equal entries are not always repeated. Inconclusive results and toxic doses are left out. Bridge positions count the residues as written; N and C are the ends. Square brackets hold non-standard residues; d marks the D form. Peptide text beside a SMILES is read from it. I, II: the chains in the order shown. * marks the point of attachment. Quinoxaline2carbonyl = O=C(c1cnc2ccccc2n1)*; NMeV = CN[CH](C(=O)O)C(C)C; NMeC = CN[CH](CS)C(=O)O

System: BDF1 mice, B16 melanoma ip, median survival T/C
Assay: NCI In Vivo Anticancer Drug Screen. Data for tumor model B16 Melanoma (intraperitoneal) in B6D2F1 (BDF1) mice
Details: endpoint: median survival time, higher = longer survival
Method in brief: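 Values are ratios of treated (T) to vehicle-control (C) measurements of survival or tumor size in tumor-bearing mice.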

In the case of CC1CN1C(=O)NCCCCCCNC(=O)N1CC1C (stereo not given), the T/C (dose: 1.25 mg/kg/injection, schedule: Q01DX009 (ip), vehicle: Klucel (hydroxypropylcellulose) (HPC)) is reported as 151 % of control, the T/C (dose: 1.25 mg/kg/injection, schedule: Q01DX009 (ip), vehicle: saline) is reported as 152 % of control and the T/C (dose: 2.5 mg/kg/injection, schedule: Q01DX009 (ip), vehicle: saline) is reported as 180 % of control. The T/C (dose: 5.0 mg/kg/injection, schedule: Q01DX009 (ip), vehicle: Klucel (hydroxypropylcellulose) (HPC)) was 158 % of control and the T/C (dose: 5.0 mg/kg/injection, schedule: Q01DX009 (ip), vehicle: saline) was 202 % of control.

For CCCCCCCC(=O)N(C)OC, the T/C (dose: 6.25 mg/kg/injection, schedule: Q04DX003 (ip), vehicle: Klucel (hydroxypropylcellulose) (HPC)) was 107 % of control, the T/C (dose: 12.5 mg/kg/injection, schedule: Q04DX003 (ip), vehicle: Klucel (hydroxypropylcellulose) (HPC)) was 96 % of control and the T/C (dose: 25.0 mg/kg/injection, schedule: Q04DX003 (ip), vehicle: Klucel (hydroxypropylcellulose) (HPC)) was 112 % of control.

With Cc1cnnc2ccccc12 the T/C (dose: 12.5 mg/kg/injection, schedule: Q01DX009 (ip), vehicle: saline with Tween-80) was 91 % of control, the T/C (dose: 25.0 mg/kg/injection, schedule: Q01DX009 (ip), vehicle: saline with Tween-80) was 98 % of control and the T/C (dose: 50.0 mg/kg/injection, schedule: Q01DX009 (ip), vehicle: saline with Tween-80) was 95 % of control.

CC1NC(=O)C(NC(=O)c2cnc3ccccc3n2)COC(=O)C(C(C)C)N(C)C(=O)C2CSSCC(C(=O)N(C)C(C(C)C)C(=O)OCC(NC(=O)c3cnc4ccccc4n3)C(=O)NC(C)C(=O)N2C)N(C)C1=O (stereo not given) (I: Quinoxaline2carbonyl-SA[NMeC][NMeV] / II: Quinoxaline2carbonyl-SA[NMeC][NMeV]; ester I:1-II:C, I:C-II:1; disulfide I:3-II:3; configuration not given here) was tested, and the T/C (dose: 3.0 micrograms/kg/injection, schedule: Q01DX009 (ip), vehicle: Klucel (hydroxypropylcellulose) (HPC)) was 111 % of control, the T/C (dose: 6.0 micrograms/kg/injection, schedule: Q01DX009 (ip), vehicle: Klucel (hydroxypropylcellulose) (HPC)) was 122 % of control and the T/C (dose: 22.5 micrograms/kg/injection, schedule: Q01DX009 (ip), vehicle: Klucel (hydroxypropylcellulose) (HPC)) was 169 % of control. For the same compound, the T/C (dose: 24.0 micrograms/kg/injection, schedule: Q01DX009 (ip), vehicle: Klucel (hydroxypropylcellulose) (HPC)) was 151 % of control, the T/C (dose: 45.0 micrograms/kg/injection, schedule: Q01DX009 (ip), vehicle: Klucel (hydroxypropylcellulose) (HPC)) was 187 % of control and the T/C (dose: 48.0 micrograms/kg/injection, schedule: Q01DX009 (ip), vehicle: Klucel (hydroxypropylcellulose) (HPC)) was 161 % of control. For the same compound, the T/C (dose: 96.0 micrograms/kg/injection, schedule: Q01DX009 (ip), vehicle: Klucel (hydroxypropylcellulose) (HPC)) was 188 % of control.

For NCCCC(NN)C(=O)O (stereo not given), the T/C (dose: 7.5 mg/kg/injection, schedule: Q01DX009 (ip), vehicle: saline) was 109 % of control, the T/C (dose: 15.0 mg/kg/injection, schedule: Q01DX009 (ip), vehicle: saline) was 111 % of control and the T/C (dose: 30.0 mg/kg/injection, schedule: Q01DX009 (ip), vehicle: saline) was 104 % of control.

In the case of CCCCNC=O, the T/C (dose: 100.0 mg/kg/injection, schedule: Q01DX009 (ip), vehicle: saline) is reported as 102 % of control, the T/C (dose: 200.0 mg/kg/injection, schedule: Q01DX009 (ip), vehicle: saline) is reported as 102 % of control and the T/C (dose: 400.0 mg/kg/injection, schedule: Q01DX009 (ip), vehicle: saline) is reported as 116 % of control.

With OC[CH2][Hg][Br] the T/C (dose: 0.37 mg/kg/injection, schedule: Q01DX009 (ip), vehicle: saline) was 97 % of control, the T/C (dose: 0.75 mg/kg/injection, schedule: Q01DX009 (ip), vehicle: saline) was 94 % of control and the T/C (dose: 1.5 mg/kg/injection, schedule: Q01DX009 (ip), vehicle: saline) was 94 % of control. For the same compound, the T/C (dose: 3.0 mg/kg/injection, schedule: Q01DX009 (ip), vehicle: saline) was 93 % of control.

With C#C[C@]1(O)CC[C@H]2[C@@H]3CCc4cc(O)ccc4[C@H]3CC[C@@]21C the T/C (dose: 5.0 mg/kg/injection, schedule: Q02DX009 (ip), vehicle: Klucel (hydroxypropylcellulose) (HPC)) was 86 % of control, the T/C (dose: 10.0 mg/kg/injection, schedule: Q02DX009 (ip), vehicle: Klucel (hydroxypropylcellulose) (HPC)) was 97 % of control and the T/C (dose: 20.0 mg/kg/injection, schedule: Q02DX009 (ip), vehicle: Klucel (hydroxypropylcellulose) (HPC)) was 87 % of control. For the same compound, the T/C (dose: 40.0 mg/kg/injection, schedule: Q02DX009 (ip), vehicle: Klucel (hydroxypropylcellulose) (HPC)) was 86 % of control and 96 % of control and the T/C (dose: 80.0 mg/kg/injection, schedule: Q02DX009 (ip), vehicle: Klucel (hydroxypropylcellulose) (HPC)) was 86 % of control.

In the case of O=[N+]([O-])c1ccc(C(O)CC(O)(C(F)(F)F)C(F)(F)F)cc1 (stereo not given), the T/C (dose: 100.0 mg/kg/injection, schedule: Q04DX003 (ip), vehicle: Klucel (hydroxypropylcellulose) (HPC)) is reported as 97 % of control, the T/C (dose: 200.0 mg/kg/injection, schedule: Q04DX003 (ip), vehicle: Klucel (hydroxypropylcellulose) (HPC)) is reported as 97 % of control and the T/C (dose: 400.0 mg/kg/injection, schedule: Q04DX003 (ip), vehicle: Klucel (hydroxypropylcellulose) (HPC)) is reported as 95 % of control.

CC(=N\O)/C(C)=N/O.CC(=N\O)/C(C)=N/O.[Pd] was tested, and the T/C (dose: 0.75 mg/kg/injection, schedule: Q01DX009 (ip), vehicle: Klucel (hydroxypropylcellulose) (HPC)) was 96 % of control, the T/C (dose: 1.57 mg/kg/injection, schedule: Q01DX009 (ip), vehicle: Klucel (hydroxypropylcellulose) (HPC)) was 95 % of control and the T/C (dose: 3.13 mg/kg/injection, schedule: Q01DX009 (ip), vehicle: Klucel (hydroxypropylcellulose) (HPC)) was 96 % of control. For the same compound, the T/C (dose: 6.25 mg/kg/injection, schedule: Q01DX009 (ip), vehicle: Klucel (hydroxypropylcellulose) (HPC)) was 94 % of control.
